Measured values taken from US20240316000A1, “METHODS OF TREATMENT” (DIFFUSION PHARMACEUTICALS LLC, priority 2021, published 2024).

Assay: Population pharmacokinetics of TSC in plasma (LC-MS/MS, two-compartment model)
Type: in vivo, human
Design: V2 / V1: unit not given here
Experimental: Prior to and following study drug administration, PK samples are obtained at the below intervals: • Pre-dose (within 10 minutes prior to injection) • 1 minute post end of injection (+1 minute) • 10 minutes post end of injection (±1 minute) • 30 minutes post end of injection (±1 minute) • 1.5 hours post end of injection (±2 minutes)
Plasma is assayed for TSC using LC-MS/MS using prednisone as an internal standard. Sample pre-treatment involves a protein precipitation extraction procedure. Lower limit of quantitation is 10 ng/ml.
For 19 of the 24 subjects included in the PK analysis, TSC concentration (Cp: Concentration in Plasma.) in the 1-minute sample is smaller (often many-fold) compared to the 10-minute sample, most likely a result of sampling too soon after the dose is administered. As a result, all 1-minute samples are excluded from population PK analysis.
Based on previous analyses and examination of drug concentration profiles, a two-compartment model with no covariates fit the data well. To determine whether the systemic parameters should be scaled for body size, three scaling approaches are evaluated: scaling all parameters by weight, allometric scaling (clearances scaled by weight raised to the 0.75 power; distribution volumes scaled by weight), and scaling all parameters by weight raised to an estimated power. The weight normalized model is preferred statistically (evaluated by the decrease in the objective function [similar to a sum of squares]) and by graphics. […] A model is evaluated in which clearance varied as a linear function of dose: […]

[1] = population estimate, multiplied by SCALE (WT/75)

Clearance as a function of dose (IV bolus 0.5-2.5 mg/kg): clearance decreases at escalating doses
TSC plasma concentrations as a function of dose (IV bolus 0.5-2.5 mg/kg, highest at 2.5 mg/kg): increase with escalating dose
clearance (human, plasma, population estimate, single IV bolus 0.5-2.5 mg/kg, multiplied by SCALE (WT/75) and FCTR 1-0.53677 · (DOSE/1.5)): 137 mL/min
Distribution Clearance [1]: 161.176 · SCALE L/day
V1 [1]: 4.277 · SCALE
V2 [1]: 46.61 · SCALE
Compound: CC(/C=C/C=C(\C)C(=O)[O-])=C\C=C\C=C(C)\C=C\C=C(/C)C(=O)O.[Na+] [TSC, trans sodium crocetinate]
